Assay results as given in US10570149B2, “Tricyclic heterocylic derivatives” (MERCK PATENT GMBH, priority 2016, dated 2020).
Read-outs that look alike come from different tables or passages of the source.

Key:
[1] = system: phosphorylation of Chk1 (Ser 345) in HT29 colon adenocarcinoma cells; assay: pCHK1 cellular assay; type: cell-based; conditions: Homo sapiens, HT-29, Table 1, class symbols, hydroxyurea
Source text: Chk1 kinase acts downstream of ATR and has a key role in DNA damage checkpoint control. Activation of Chk1 involves phosphorylation of Ser317 and Ser345 (regarded as the preferential target for phosphorylation/activation by ATR) and occurs in response to blocked DNA replication and certain forms of genotoxic stress. Phosphorylation at Ser 345 serves to localize Chk1 to the nucleus following checkpoint activation.
This assay measures a decrease in phosphorylation of Chk1 (Ser 345) in HT29 colon adenocarcinoma cells following treatment with compound and hydroxyurea (which promotes fork stalling because of dNTP depletion) and using an immunocytochemical procedure and high content imaging.
For the assay HT29 cells are plated in culture medium (DMEM high Glucose (no phenol red), 2 mM Glutamax, 1 mM Pyruvate, 10% FCS into Greiner 384 well plates, black, μclear #781090 (2500 cells/well/30 μl) and incubated for at least 20 hours at 37° C., 10% CO2 and 90% rH. Diluted test compounds (1 nM-30 μM final) and hydroxyurea (3 mM final) are added simultaneously and cells are incubated for 4 h at 37° C. After fixation/prmeabilisation with 100% MeOH (−20° C. cold) and permeabilisation with 0.2% Triton X-100 a complete immunocytochemical procedure is performed using a specific anti-pChk1 antibody (Cell Signaling, #2348BF) and fluorescently labelled secondary antibody (Alexa Fluor® 488 goat anti-rabbit F(ab′)2 fragment, Invitrogen A11070) and parallel nuclear staining for cell counting.
The nuclear localised pChk1 signal is detected on an ImageXpress Ultra confocal high content reader and reported as % positive cells (nuclei).

[2] = target: T1, ATR/ATRIP (Homo sapiens, UniProt Q13535); assay: ATR/ATRIP kinase assay (TR-FRET, p53 phosphorylation); type: biochemical
T1 construct: human ATR, full length, GenBank ID: NM_001184.3; p53: Sf21 insect cells
T1 sequence (Q13535 whole entry): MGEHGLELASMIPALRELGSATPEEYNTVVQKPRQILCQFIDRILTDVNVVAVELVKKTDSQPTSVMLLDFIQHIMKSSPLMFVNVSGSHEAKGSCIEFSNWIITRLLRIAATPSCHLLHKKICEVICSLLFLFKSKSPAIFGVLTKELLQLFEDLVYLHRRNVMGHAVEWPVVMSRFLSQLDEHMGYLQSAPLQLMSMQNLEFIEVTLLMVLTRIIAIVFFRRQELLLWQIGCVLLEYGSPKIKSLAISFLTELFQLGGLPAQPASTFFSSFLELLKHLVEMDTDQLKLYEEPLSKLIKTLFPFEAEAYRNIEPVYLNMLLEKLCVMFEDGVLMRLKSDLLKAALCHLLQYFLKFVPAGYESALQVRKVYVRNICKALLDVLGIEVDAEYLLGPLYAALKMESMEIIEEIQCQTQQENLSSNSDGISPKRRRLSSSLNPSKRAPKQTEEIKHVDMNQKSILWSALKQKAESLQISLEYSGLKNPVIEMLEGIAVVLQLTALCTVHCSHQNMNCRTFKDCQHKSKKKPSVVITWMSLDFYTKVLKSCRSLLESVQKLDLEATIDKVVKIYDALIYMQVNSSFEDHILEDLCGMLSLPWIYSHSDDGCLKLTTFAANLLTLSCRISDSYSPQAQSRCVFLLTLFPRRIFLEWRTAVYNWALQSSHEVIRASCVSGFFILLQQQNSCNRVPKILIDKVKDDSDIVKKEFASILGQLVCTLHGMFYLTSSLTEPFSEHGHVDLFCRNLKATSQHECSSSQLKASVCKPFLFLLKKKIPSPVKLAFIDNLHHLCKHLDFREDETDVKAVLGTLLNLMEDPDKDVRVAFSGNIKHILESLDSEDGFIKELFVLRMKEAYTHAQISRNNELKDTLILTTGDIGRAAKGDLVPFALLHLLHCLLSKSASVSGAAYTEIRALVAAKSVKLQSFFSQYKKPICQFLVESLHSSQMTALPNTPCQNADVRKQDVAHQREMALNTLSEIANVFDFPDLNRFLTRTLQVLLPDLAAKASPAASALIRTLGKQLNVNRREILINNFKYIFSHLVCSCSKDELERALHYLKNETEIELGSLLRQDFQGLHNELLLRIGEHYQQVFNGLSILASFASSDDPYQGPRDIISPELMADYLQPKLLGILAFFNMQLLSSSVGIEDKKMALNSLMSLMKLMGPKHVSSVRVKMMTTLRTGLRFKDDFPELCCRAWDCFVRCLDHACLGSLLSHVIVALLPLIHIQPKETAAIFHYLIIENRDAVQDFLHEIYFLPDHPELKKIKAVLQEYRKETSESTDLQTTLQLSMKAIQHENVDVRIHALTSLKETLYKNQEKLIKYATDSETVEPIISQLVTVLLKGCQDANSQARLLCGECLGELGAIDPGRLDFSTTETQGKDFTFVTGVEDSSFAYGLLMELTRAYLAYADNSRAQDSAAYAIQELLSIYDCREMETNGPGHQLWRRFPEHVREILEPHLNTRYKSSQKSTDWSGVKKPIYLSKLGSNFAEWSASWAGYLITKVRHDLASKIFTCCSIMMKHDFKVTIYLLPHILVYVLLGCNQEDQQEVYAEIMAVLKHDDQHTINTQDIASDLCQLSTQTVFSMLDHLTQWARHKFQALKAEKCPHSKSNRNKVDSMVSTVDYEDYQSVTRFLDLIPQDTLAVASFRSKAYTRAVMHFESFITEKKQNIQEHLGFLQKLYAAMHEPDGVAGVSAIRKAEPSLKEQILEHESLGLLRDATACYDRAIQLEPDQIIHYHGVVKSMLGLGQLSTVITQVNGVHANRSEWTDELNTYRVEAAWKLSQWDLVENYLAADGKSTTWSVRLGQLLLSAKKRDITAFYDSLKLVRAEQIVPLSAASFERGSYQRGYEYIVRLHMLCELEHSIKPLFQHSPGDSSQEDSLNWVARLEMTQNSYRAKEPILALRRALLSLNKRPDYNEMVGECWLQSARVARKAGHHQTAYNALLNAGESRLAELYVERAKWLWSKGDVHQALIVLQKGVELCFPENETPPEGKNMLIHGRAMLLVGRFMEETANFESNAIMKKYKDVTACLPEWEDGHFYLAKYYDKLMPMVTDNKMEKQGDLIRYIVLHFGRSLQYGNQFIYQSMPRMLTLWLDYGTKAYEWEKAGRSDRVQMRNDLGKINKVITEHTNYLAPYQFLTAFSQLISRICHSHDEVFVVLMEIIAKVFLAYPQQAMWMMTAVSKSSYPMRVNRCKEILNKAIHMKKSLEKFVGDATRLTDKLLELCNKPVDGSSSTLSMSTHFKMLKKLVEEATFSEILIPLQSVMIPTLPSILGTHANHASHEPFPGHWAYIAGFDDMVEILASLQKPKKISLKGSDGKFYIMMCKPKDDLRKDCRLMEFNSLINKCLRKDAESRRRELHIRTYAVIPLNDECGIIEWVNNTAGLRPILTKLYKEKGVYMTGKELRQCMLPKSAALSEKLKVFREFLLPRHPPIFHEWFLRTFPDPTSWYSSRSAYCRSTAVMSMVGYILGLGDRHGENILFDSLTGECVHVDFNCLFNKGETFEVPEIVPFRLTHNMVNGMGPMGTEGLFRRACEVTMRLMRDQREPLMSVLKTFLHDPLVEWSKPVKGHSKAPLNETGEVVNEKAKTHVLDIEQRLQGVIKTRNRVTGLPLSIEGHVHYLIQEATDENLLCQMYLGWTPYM
T1 sequence (Q8WXE1 whole entry partner): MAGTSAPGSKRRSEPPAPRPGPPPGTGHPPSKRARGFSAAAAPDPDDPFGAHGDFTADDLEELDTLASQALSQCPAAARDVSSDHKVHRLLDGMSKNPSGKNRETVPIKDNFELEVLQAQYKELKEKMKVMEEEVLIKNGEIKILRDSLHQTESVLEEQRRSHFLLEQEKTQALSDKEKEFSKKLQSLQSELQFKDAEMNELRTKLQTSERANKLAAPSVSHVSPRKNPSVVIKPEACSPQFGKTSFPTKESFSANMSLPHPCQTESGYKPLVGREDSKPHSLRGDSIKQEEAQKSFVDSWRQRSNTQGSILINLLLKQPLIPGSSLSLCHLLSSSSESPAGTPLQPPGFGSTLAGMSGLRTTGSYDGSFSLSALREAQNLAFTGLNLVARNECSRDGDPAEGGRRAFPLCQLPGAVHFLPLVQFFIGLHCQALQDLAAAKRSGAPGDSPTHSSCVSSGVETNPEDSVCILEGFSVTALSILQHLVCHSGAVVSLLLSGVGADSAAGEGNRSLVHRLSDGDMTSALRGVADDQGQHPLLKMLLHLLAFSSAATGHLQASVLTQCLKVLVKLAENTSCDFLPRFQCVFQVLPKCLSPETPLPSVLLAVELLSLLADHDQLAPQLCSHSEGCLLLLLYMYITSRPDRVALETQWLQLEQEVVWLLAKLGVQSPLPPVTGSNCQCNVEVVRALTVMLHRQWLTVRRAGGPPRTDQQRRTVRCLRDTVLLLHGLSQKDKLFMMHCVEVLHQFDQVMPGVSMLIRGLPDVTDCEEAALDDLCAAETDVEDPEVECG
Protocol: ATR/ATRIP Kinase Assay—Measurement of ATR/ATRIP Inhibition
The IC50 value was determined by an ATR/ATRIP enzymatic assay. The assay comprises two steps: the enzymatic reaction and the detection step. First, a mixture of ATR/ATRIP protein (Ataxia Telangiectasia and Rad3-related protein/ATR interacting protein), the compound in question at different concentrations, p53 as substrate protein and adenosine triphosphate (ATP) are incubated in assay buffer. ATR phosphorylates p53 at Ser15 and other residues. The amount of phosphorylated p53 is then detected using specific antibodies and the TR-FRET assay technology.
In detail: The ATR/ATRIP enzymatic assay is performed as a TR-FRET-(HTRF™, Cisbio Bioassays) based 384-well assay. In a first step, purified human recombinant ATR/ATRIP (human ATR, full length, GenBank ID: NM_001184.3, and human ATRIP, full length, GenBank ID AF451323.1, co-expressed in a mammalian cell line) is incubated in assay buffer for 15 minutes at 22° C. with test compound at different concentrations or without test compound (as a negative control). The assay buffer contains 25 mM HEPES pH 8.0, 10 mM Mg(CH3COO)2, 1 mM MnCl2, 0.1% BSA, 0.01% Brij® 35, and 5 mM dithiothreitol (DTT). […] Then, in a second step, purified human recombinant cmyc-tagged p53 (human p53, full length, GenBank ID: BC003596, expressed in Sf21 insect cells) and ATP are added and the reaction mixture is incubated for 25-35 minutes, typically 25 minutes, at 22° C. The pharmacologically relevant assay volume is 5 μl. The final concentrations in the assay during incubation of the reaction mixture are 0.3-0.5 nM, typically 0.3 nM, ATR/ATRIP, 50 nM p53, and 0.5 μM ATP. The enzymatic reaction is stopped by the addition of EDTA. […] Following signal development for 2 h the plates are analyzed in an EnVision (PerkinElmer) microplate reader using the TRF mode with laser excitation. […] Data are processed employing the Genedata Screener software. In particular, IC50 values are determined in the usual manner by fitting a dose-response curve to the data points using nonlinear regression analysis.

[3] = Table 1, class symbols, read-out: ATR-ATRIP IC50

IC50 [1] [nM]	IC50 [2, 3] [nM]	SMILES	IC50 [2] [nM]
10 to 100	1 to 10	[2H]C([2H])([2H])Nc1cnc2[nH]ccc2c1-c1nc2c(c(C(C)(C)S(C)(=O)=O)n1)OC[C@@H]1COC[C@@H](C)N21 [A42, 4-[(10S,14R)-6-(2-methanesulfonylpropan-2-yl)-14-methyl-8,12-dioxa-1,3,5-triazatricyclo[8.4.0.0^2,7]tetradeca-2,4,6-trien-4-yl]-N-(^2H3)methyl-1H-pyrrolo[2,3-b]pyridin-5-amine]	–
< 10	< 1	CNc1ncc2[nH]ccc2c1-c1nc2c(c(C(C)(C)S(C)(=O)=O)n1)OC[C@@H]1COC[C@@H](C)N21 [A27, {4-[(5R,8aS)-1-(1-Methanesulfonyl-1-methyl-ethyl)-5-methyl-5,6,8a,9-tetrahydro-8H-7,10-dioxa-2,4,4b-triaza-phenanthren-3-yl]-1H-pyrrolo[2,3-c]pyridin-5-yl}-methyl-amine]	–
10 to 100	< 1	C[C@@H]1COC[C@H]2COc3c(nc(-c4cncc5[nH]ccc45)nc3C(C)(C)S(C)(=O)=O)N21 [A39, (5R,8aS)-1-(1-methanesulfonyl-1-methyl-ethyl)-5-methyl-3-(1H-pyrrolo[2,3-c]pyridin-4-yl)-5,6,8a,9-tetrahydro-8H-7,10-dioxa-2,4,4b-triaza-phenanthrene]	–
10 to 100	< 1	C[C@@H]1COC[C@H]2COc3c(nc(-c4ccc(CN)cc4)nc3C(C)(C)S(C)(=O)=O)N21 [A46, 4-[(5R,8aS)-1-(1-methanesulfonyl-1-methyl-ethyl)-5-methyl-5,6,8a,9-tetrahydro-8H-7,10-dioxa-2,4,4b-triaza-phenanthren-3-yl]-benzylamine]	–
100 to 1000	< 1	C[C@@H]1COC[C@H]2COc3c(nc(-c4ccc5nc(N)ccc5c4)nc3C(C)(C)S(C)(=O)=O)N21 [A72, 6-[(5R,8aS)-1-(1-methanesulfonyl-1-methyl-ethyl)-5-methyl-5,6,8a,9-tetrahydro-8H-7,10-dioxa-2,4,4b-triaza-phenanthren-3-yl]-quinolin-2-ylamine]	–
10 to 100	1 to 10	CCNc1cnc2[nH]ccc2c1-c1nc2c(c(C(C)(C)S(C)(=O)=O)n1)OC[C@@H]1COC[C@@H](C)N21 [A90, ethyl-{4-[(S)-1-(1-methanesulfonyl-1-methyl-ethyl)-5-(R)-methyl-5,6,8a,9-tetrahydro-8H-7,10-dioxa-2,4,4b-triaza-phenanthren-3-yl]-1H-pyrrolo[2,3-b]pyridin-5-yl}-amine]	–
100 to 1000	10 to 100	C[C@@H]1COC[C@H]2COc3c(nc(-c4ccc5nc(N)ncc5c4)nc3C(C)(C)S(C)(=O)=O)N21 [A78, 6-[(5R,8aS)-1-(1-methanesulfonyl-1-methyl-ethyl)-5-methyl-5,6,8a,9-tetrahydro-8H-7,10-dioxa-2,4,4b-triaza-phenanthren-3-yl]-quinazolin-2-ylamine]	–
10 to 100	< 1	C[C@@H]1COC[C@H]2COc3c(nc(Nc4ccn[nH]4)nc3C(C)(C)S(C)(=O)=O)N21 [A73, [(5R,8aS)-1-(1-methanesulfonyl-1-methyl-ethyl)-5-methyl-5,6,8a,9-tetrahydro-8H-7,10-dioxa-2,4,4b-triaza-phenanthren-3-yl]-(2H-pyrazol-3-yl)-amine]	–
–	500 to 30000	C[C@@H]1COC[C@H]2COc3c(nc(C(=O)Nc4ccnnc4)nc3C(C)(C)S(C)(=O)=O)N21 [A57, (4bS,6R)-1-(1-methanesulfonyl-1-methyl-ethyl)-5-methyl-5,6,8a,9-tetrahydro-8H-7,10-dioxa-2,4,4b-triaza-phenanthrene-3-carboxylic Acid pyridazin-4-ylamide]	–
–	1 to 10	C[C@@H]1COC[C@H]2COc3c(nc(-c4c(C#N)cnc5[nH]ccc45)nc3C(C)(C)S(C)(=O)=O)N21 [A89, 4-[(10S,14R)-6-(2-methanesulfonylpropan-2-yl)-14-methyl-8,12-dioxa-1,3,5-triazatricyclo[8.4.0.0^{2,7}]tetradeca-2,4,6-trien-4-yl]-1H-pyrrolo[2,3-b]pyridine-5-carbonitrile]	–
–	500 to 30000	C[C@@H]1COC[C@H]2COc3c(nc(NCc4cn[nH]c4)nc3C(C)(C)S(C)(=O)=O)N21 [A65, [(5R,8aS)-1-(1-methanesulfonyl-1-methyl-ethyl)-5-methyl-5,6,8a,9-tetrahydro-8H-7,10-dioxa-2,4,4b-triaza-phenanthren-3-yl]-(1H-pyrazol-4-ylmethyl)-amine]	–
–	500 to 30000	CC(CO)NC(=O)c1nc2c(c(C(C)(C)S(C)(=O)=O)n1)OC[C@@H]1COC[C@@H](C)N21 (stereo partly drawn) [A56, (4bS,6R)-1-(1-methanesulfonyl-1-methyl-ethyl)-5-methyl-5,6,8a,9-tetrahydro-8H-7,10-dioxa-2,4,4b-triaza-phenanthrene-3-carboxylic Acid (2-hydroxy-1-methyl-ethyl)-amide]	–
–	500 to 30000	C[C@@H]1COC[C@H]2COc3c(nc(C(=O)N4CC[C@H](O)C4)nc3C(C)(C)S(C)(=O)=O)N21 [A48, ((S)-3-hydroxy-pyrrolidin-1-yl)-[(4bS,6R)-1-(1-methanesulfonyl-1-methyl-ethyl)-5-methyl-5,6,8a,9-tetrahydro-8H-7,10-dioxa-2,4,4b-triaza-phenanthren-3-yl]-methanone]	–
–	10 to 100	C[C@@H]1COC[C@H]2COc3c(Cn4nncc4C(=O)O)nc(-c4ccnc5[nH]ccc45)nc3N21 [A2, 3-[(5R,8aS)-5-Methyl-3-(1H-pyrrolo[2,3-b]pyridin-4-yl)-5,6,8a,9-tetrahydro-8H-7,10-dioxa-2,4,4b-triaza-phenanthren-1-ylmethyl]-3H[1,2,3]triazole-4-carboxylic Acid]	–
–	10 to 100	C[C@@H]1COC[C@H]2COc3c(nc(-c4ccc(CCN)cc4)nc3C(C)(C)S(C)(=O)=O)N21 [A45, 2-{4-[(4bS,6R)-1-(1-methanesulfonyl-1-methyl-ethyl)-5-methyl-5,6,8a,9-tetrahydro-8H-7,10-dioxa-2,4,4b-triaza-phenanthren-3-yl]-phenyl}-ethylamine]	–
–	100 to 500	C[C@@H]1COC[C@H]2COc3c(nc(Oc4cn[nH]c4)nc3C(C)(C)S(C)(=O)=O)N21 [A80, (5R,8aS)-1-(1-methanesulfonyl-1-methyl-ethyl)-5-methyl-3-(1H-pyrazol-4-yloxy)-5,6,8a,9-tetrahydro-8H-7,10-dioxa-2,4,4b-triaza-phenanthrene]	–
–	500 to 30000	C[C@@H]1COC[C@H]2COc3c(nc(-n4cc(C(N)=O)cn4)nc3C(C)(C)S(C)(=O)=O)N21 [A68, 1-[(S)-1-(1-methanesulfonyl-1-methyl-ethyl)-5-(R)-methyl-5,6,8a,9-tetrahydro-8H-7,10-dioxa-2,4,4b-triaza-phenanthren-3-yl]-1H-pyrazole-4-carboxylic Acid Amide]	–

SMILES	IC50 [1] [nM]	IC50 [2, 3] [nM]	IC50 [2] [nM]
C[C@@H]1COC[C@H]2COc3c(nc(-c4ccc(C5(CO)CN5)cc4)nc3C(C)(C)S(C)(=O)=O)N21 (stereo partly drawn) [A61, (2-{4-[(5R,8aS)-1-(1-methanesulfonyl-1-methyl-ethyl)-5-methyl-5,6,8a,9-tetrahydro-8H-7,10-dioxa-2,4,4b-triaza-phenanthren-3-yl]-phenyl}-aziridin-2-yl)-methanol]	1000 to 30000	–	500 to 30000
